Entries after “also recorded” stand apart in the source; their conditions may differ.
What was measured:
[1] = target: T1, thrombin (Homo sapiens, UniProt P00734); conditions: thrombin inhibitor, quoted; cited from earlier work
[2] = tested on: C57BL/6 mice; experiment: Photochemical (rose bengal) injury, thrombotic occlusion of the carotid artery; assay type: in vivo, mouse; conditions: for time to occlusion of the carotid artery: i.v. bolus 10 min before rose bengal, heparin 0.125 mg/kg, PPACK 12.5 mg/kg, nanoparticles 1 mL/kg; for effect on occlusion time / thrombus formation (in words): photochemical injury, C57BL/6 mice
From the text: As described in previous work, 10-12 week old male C57BL/6 mice (weight 25-30 g) were subjected to photochemical injury of the carotid. After anesthetization with sodium pentobarbital, the mice were secured under a dissecting microscope for isolation of the right common carotid artery via midline cervical incision. An ultrasonic flow probe (model 0.5 VB Transonic Systems, Ithaca, N.Y.) was applied to the artery to measure flow for the duration of each experiment. A 1.5 mW 540 nm HeNe laser (Melles Griot, Carlsbad, Calif.) was focused on the artery at a distance of 6 cm. […] In additional control experiments (n=4), no treatment preceded injection of the rose bengal dye. Occlusion of the carotid artery was noted and experiments were terminated upon the stable (>5 minutes) maintenance of zero flow.

[3] = target: T1, thrombin; conditions: literature value; cited from earlier work
[4] = in vivo; cited from earlier work
[5] = target: T1, thrombin; experiment: Thrombin inhibition and inhibition kinetics with chromogenic substrate Chromozym TH; assay type: biochemical
Procedure: Tosyl-Gly-Pro-Arg-4 nitranilide acetate (Chromozym TH, Roche Applied Science) was employed to assay PPACK inhibition of thrombin and plasmin in accordance with previously described methods [31]. 100 μL of 12 nM thrombin was incubated for one minute at room temperature with selected amounts of PPACK or PPACK-nanoparticles or with an excess of bare nanoparticles. 500 μL (100 μM) of the thrombin substrate Tosyl-Gly-Pro-Arg-4 nitranilide acetate were added to terminate the PPACK-thrombin interaction. In accordance with previous work, thrombin activity against the substrate was measured via absorbance at 405 nm. The rate of change in absorbance at 405 nm was taken as representative of the amount of uninhibited thrombin available to cleave Chromozym TH.
In additional experiments, Chromozym TH was used to determine the kinetics of the PPACK-thrombin interaction. […] Thrombin activity was measured as above. Kinetics of inhibition were characterized in accordance with the work of Kettner and Shaw [26]. The assay yielded the apparent pseudo-first-order rate constant for thrombin inactivation (kapp). Modeling inhibition according to equation (1), an estimate of the second order constants (k2/Ki) for the PPACK-thrombin interaction and the PPACK nanoparticle-thrombin interaction were obtained via equation (2). To best obtain a pseudo-first-order reaction, thrombin dilution was maximized within the limits set by the sensitivity of the Chromozym TH assay.

[6] = tested on: mice; conditions: cited from earlier work
[7] = Stability of the nanoparticle formulation (HPLC of unattached PPACK after storage); assay type: physicochemical; conditions: PPACK particles: after dialysis and one week storage at four degrees
Procedure: To functionalize particles containing 1,2-distearoyl-sn-glycero-3-phosphoethanolamine-N-[carboxy(polyethylene glycol)-2000] with PPACK, amine-carboxyl coupling was employed to conjugate the PPACK N-terminus to the bare carboxyl groups on the synthesized particles. After one hour mixing of 1 mL emulsion with 12.5 mg PPACK, EDCI 1-[3-(Dimethylamino)propyl]-3-ethylcarbodiimide methiodide (2 mg) was added for overnight coupling. Excess PPACK and EDCI were removed by dialysis (MWCO 3000-5000). Particle size was assessed before and after PPACK conjugation as described above. Extent of PPACK coupling was determined by reverse-phase HPLC quantification of uncoupled PPACK after centrifugation of nanoparticles with Cleanascite lipid adsorption reagent (Agilent Technologies). […] PPACK was detected via phenylalanine absorbance (258 nm). Zeta potential measurements, taking into consideration hydrodynamic diameter measurements, were used for further verification of PPACK coupling (Brookhaven Instruments).

[8] = tested on: C57BL/6 mice; conditions: heparin 0.125 mg/kg, rose bengal model; cited from earlier work

## CN[C@H](Cc1ccccc1)C(=O)N1CCC[C@H]1C(=O)N[C@H](C=O)CCCN=C(N)N [Efegatran]
[1]
  Ki: 1.2 nM

## NC(N)=NCCC[C@H](NC(=O)[C@@H]1CCCN1C(=O)[C@H](N)Cc1ccccc1)C(=O)CCl [PPACK, D-phenylalyl-L-prolyl-L-arginyl-chloromethyl ketone]
[2]
  time to occlusion of the carotid artery: 71 ± 19 min
  effect on occlusion time / thrombus formation (in words): allowed a steady approach to complete occlusion; also recorded: did not delay occlusion time
[3]
  second order constant found by Kettner and Shaw: 1.2e+09 M⁻¹ min⁻¹
[4]
  distribution half-life: 7 min
  elimination (clearance) half-life: 2.9 min
[5]
  effect on thrombin activity against Chromozym TH (in words): no significant thrombin activity apparent beyond a ten-fold excess
[5]; 0.92 nM thrombin, 5 nM PPACK or 0.3 pM PPACK nanoparticles
  pseudo-first-order rate constant kapp: 1.824 min⁻¹
[5]; free PPACK or PPACK on the particles, 5 nM PPACK
  second order constant (k2/Ki), per PPACK: 3.65e+08 M⁻¹ min⁻¹
[5]; one-minute incubation, per PPACK concentration
  decay constant of thrombin activity with inhibitor concentration: 0.026 nM⁻¹
[6]
  LD50: greater than 50 mg/kg
  long-term toxicity: no long-term toxicity

## Bivalirudin nanoparticles: Bivalirudin conjugated at the N-terminus to Carboxy-PEG functionalized perfluorocarbon nanoparticles
[7]
  stability of the nanoparticle formulation: analogous coupling and stability characteristics
[2]
  effect on occlusion time / thrombus formation (in words): Bivalirudin nanoparticles did

## Bivalirudin: short synthetic peptide, specific and reversible direct thrombin inhibitor
[2]
  effect on occlusion time / thrombus formation (in words): did not significantly extend occlusion time
[5]
  effect on thrombin activity against Chromozym TH (in words): less active, but more specific than PPACK

## Heparin
[2]
  time to occlusion of the carotid artery: 102 ± 13 min
  effect on occlusion time / thrombus formation (in words): formation of a stable thrombus was noticeably delayed
[8]
  occlusion time in previous trials: 97 ± 18 min

Source: patent publication US9808500B2, “Antithrombotic nanoparticle” (Washington University, priority 2009, dated 2017)
